From US20230159538A1, “PYRROLIDINE-PYRAZOLES AS PYRUVATE KINASE ACTIVATORS” (Global Blood Therapeutics, Inc., priority 2020, published 2023)

What was measured:
[1] = target: T1, Human pyruvate kinase R (PKR) (Homo sapiens, UniProt P30613); assay: Biochemical assay for activation of pyruvate kinase R (Kinase-Glo luminescence, ATP generation); settings: for AC50: 0.1 nM PKR, 2 mM FBP, 0.3 mM ADP, 0.1 mM PEP; for PKR % activation: maximal activation level relative to the activation level achieved by AG-348 @ 10 μM
T1 construct: Human pyruvate kinase R (PKR), residues 14-574; 6x-His (N, cleaved yes); 8x-Arg (N, cleaved yes); SUMO (N, cleaved yes); host or cells: E. coli
T1 sequence (P30613 14-574): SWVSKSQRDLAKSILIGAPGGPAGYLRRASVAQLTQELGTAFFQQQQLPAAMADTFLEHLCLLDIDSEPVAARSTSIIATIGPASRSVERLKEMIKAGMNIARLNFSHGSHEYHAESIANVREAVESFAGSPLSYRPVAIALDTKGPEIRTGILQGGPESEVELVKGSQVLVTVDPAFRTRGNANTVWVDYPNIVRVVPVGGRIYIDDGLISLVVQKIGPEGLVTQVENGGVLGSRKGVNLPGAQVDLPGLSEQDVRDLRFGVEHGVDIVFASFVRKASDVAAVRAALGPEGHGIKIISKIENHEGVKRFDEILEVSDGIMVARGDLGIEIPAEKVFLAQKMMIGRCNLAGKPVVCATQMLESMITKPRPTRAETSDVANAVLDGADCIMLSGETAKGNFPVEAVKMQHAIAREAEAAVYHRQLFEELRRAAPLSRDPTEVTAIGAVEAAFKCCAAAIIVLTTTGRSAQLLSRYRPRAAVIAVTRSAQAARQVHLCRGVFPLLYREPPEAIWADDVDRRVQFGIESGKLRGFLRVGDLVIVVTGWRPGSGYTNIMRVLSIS
Outline: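 E. coli-expressed human PKR, freed of its His-Arg-SUMO tag and purified by anion exchange and size exclusion, was tested for activation. Read-out was luminescent measurement of ATP generation with Kinase-Glo reagent.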

[2] = target: T2, Pyruvate kinase M2 (PKM2) in H1299 cells (Homo sapiens, UniProt P14618); assay: Cell based assay for activation of pyruvate kinase M2 in lung carcinoma cell line (NADH/LDH coupled assay on cell lysate); settings: PKM2 cellular assay; for AC50: H1299 cells, 90 minutes with compound; for PKM2 % activation: maximal activation level relative to the activation level achieved by AG-348 @ 10 μM
T2 construct: endogenous in cells; host or cells: H1299
T2 sequence (P14618 2-531 limits assumed): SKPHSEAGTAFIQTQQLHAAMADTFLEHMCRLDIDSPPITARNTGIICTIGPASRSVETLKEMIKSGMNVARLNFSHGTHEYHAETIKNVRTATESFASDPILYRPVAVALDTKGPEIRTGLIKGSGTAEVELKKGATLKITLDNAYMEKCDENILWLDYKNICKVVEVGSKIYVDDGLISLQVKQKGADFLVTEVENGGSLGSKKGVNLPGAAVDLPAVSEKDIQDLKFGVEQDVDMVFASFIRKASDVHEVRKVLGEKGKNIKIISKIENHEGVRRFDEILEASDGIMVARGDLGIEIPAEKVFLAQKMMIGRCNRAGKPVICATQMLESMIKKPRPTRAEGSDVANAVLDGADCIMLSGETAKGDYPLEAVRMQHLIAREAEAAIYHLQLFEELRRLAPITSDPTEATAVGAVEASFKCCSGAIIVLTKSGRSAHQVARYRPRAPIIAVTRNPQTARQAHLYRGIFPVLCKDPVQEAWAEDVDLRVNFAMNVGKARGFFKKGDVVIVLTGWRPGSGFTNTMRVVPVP
Method: Cell Based Assay for Activation of Pyruvate Kinase M2 in Lung Carcinoma Cell Line
H1299 cells were seeded in 96-well plates at 2,000 cells/well (100 uL). Treated plates were incubated overnight at 37° C. with 5% CO2. Compounds were diluted in complete media and added to cells in the presence of 1% DMSO. Cells were incubated with compound for 90 minutes at 37° C. and 5% CO2 before washing three times with PBS to remove residual compound and then lysed in lysis buffer (Cell Signaling). […] PKM2 activity was measured at steady state using a coupled enzyme activation system based on NADH consumption. PKM2 produces pyruvate and the coupled system uses lactate dehydrogenase (LDH) to reduce pyruvate to lactate with the concomitant oxidation of NADH to NAD^+. Conversion of NADH to NAD^+ was monitored using a SPECTROstar Nano plate reader (BMG Labtech) at a wavelength of 340 nm and subtraction of background absorbance measured at 750 nm. The change in NADH absorbance after PEP addition was monitored and slope obtained by subtracting baseline at 750 nm followed by least squares fitting to a simple linear regression model. A 10-point curve was generated to calculate the AC50 values by fitting the rates of NADH consumption against increasing concentration of compound.

Structure (SMILES) | AC50 [1] [nM] | AC50 [2] [nM] | PKR % activation [1] [%] | PKM2 % activation [2] [%]
Cc1cc(C(N)C(=O)N2Cc3cn(S(=O)(=O)c4ccc5ncsc5c4)nc3C2)ccc1F (racemic) [Compound 39, 2-amino-1-[2-(1,3-benzothiazole-6-sulfonyl)-2H,4H,5H,6H-pyrrolo[3,4-c]pyrazol-5-yl]-2-(4-fluoro-3-methylphenyl)ethan-1-one] | 41 | 53 | – | –
O=C([C@@H](CO)c1ccccc1)N1Cc2cn(S(=O)(=O)c3ccc4ncsc4c3)nc2C1 (single isomer, unassigned) [Compound 1, (2R)-1-[2-(1,3-benzothiazole-6-sulfonyl)-2H,4H,5H,6H-pyrrolo[3,4-c]pyrazol-5-yl]-3-hydroxy-2-phenylpropan-1-one or (2S)-1-[2-(1,3-benzothiazole-6-sulfonyl)-2H,4H,5H,6H-pyrrolo[3,4-c]pyrazol-5-yl]-3-hydroxy-2-phenylpropan-1-one] | 28 | 33 | 82 | 133
C[C@@H](O)[C@H](C(=O)N1Cc2cn(S(=O)(=O)c3ccc4ncsc4c3)nc2C1)c1ccccc1 (single isomer, unassigned) [Compound 3] | 44 | 45 | 104 | 101
O=C(N1Cc2cn(S(=O)(=O)c3ccc4ncsc4c3)nc2C1)[C@]1(c2ccccn2)CCOC1 (single isomer, unassigned) [Compound 20, 6-({5-[(3S)-3-(pyridin-2-yl)oxolane-3-carbonyl]-2H,4H,5H,6H-pyrrolo[3,4-c]pyrazol-2-yl}sulfonyl)-1,3-benzothiazole or 6-({5-[(3R)-3-(pyridin-2-yl)oxolane-3-carbonyl]-2H,4H,5H,6H-pyrrolo[3,4-c]pyrazol-2-yl}sulfonyl)-1,3-benzothiazole] | 44 | 14 | 113 | 60
O=C([C@@H](CO)c1ccccc1)N1Cc2cn(S(=O)(=O)c3ccc4c(c3)NCCO4)nc2C1 (single isomer, unassigned) [Compound 22, (2R)-1-[2-(3,4-dihydro-2H-1,4-benzoxazine-6-sulfonyl)-2H,4H,5H,6H-pyrrolo[3,4-c]pyrazol-5-yl]-3-hydroxy-2-phenylpropan-1-one or (2S)-1-[2-(3,4-dihydro-2H-1,4-benzoxazine-6-sulfonyl)-2H,4H,5H,6H-pyrrolo[3,4-c]pyrazol-5-yl]-3-hydroxy-2-phenylpropan-1-one] | 50 | 33 | 99 | 79
O=C([C@@H](CO)c1ccccc1)N1Cc2cn(S(=O)(=O)c3ccc4c(c3)OCCO4)nc2C1 (single isomer, unassigned) [Compound 25, (2R)-1-[2-(2,3-dihydro-1,4-benzodioxine-6-sulfonyl)-2H,4H,5H,6H-pyrrolo[3,4-c]pyrazol-5-yl]-3-hydroxy-2-phenylpropan-1-one or (2S)-1-[2-(2,3-dihydro-1,4-benzodioxine-6-sulfonyl)-2H,4H,5H,6H-pyrrolo[3,4-c]pyrazol-5-yl]-3-hydroxy-2-phenylpropan-1-one] | 19 | 31 | 44 | 42
O=S(=O)(c1ccc2c(c1)NCCO2)N1Cc2cn(S(=O)(=O)c3ccc4ncsc4c3)nc2C1 [Compound 12, 6-{[2-(1,3-benzothiazole-6-sulfonyl)-2H,4H,5H,6H-pyrrolo[3,4-c]pyrazol-5-yl]sulfonyl}-3,4-dihydro-2H-1,4-benzoxazine] | 41 | 23 | – | –
N[C@@H](C(=O)N1Cc2cn(S(=O)(=O)c3ccc4ncsc4c3)nc2C1)c1ccccc1 [Compound 15, (2R)-2-amino-1-[2-(1,3-benzothiazole-6-sulfonyl)-2H,4H,5H,6H-pyrrolo[3,4-c]pyrazol-5-yl]-2-phenylethan-1-one] | 45 | 26 | – | –
C[C@@H](O)[C@H](C(=O)N1Cc2cn(S(=O)(=O)c3ccc4c(c3)NCCO4)nc2C1)c1ccccc1 [Compound 23] | 56 | 61 | 95 | 116
C[C@@H](O)[C@H](C(=O)N1Cc2cn(S(=O)(=O)c3ccc4c(c3)NCCO4)nc2C1)c1ccccc1 [Compound 24] | 78 | 59 | 65 | 63
N[C@@H](C(=O)N1Cc2cn(S(=O)(=O)c3ccc(OC(F)F)cc3)nc2C1)c1cccc(F)c1 [Compound 29, (2R)-2-amino-1-{2-[4-(difluoromethoxy)benzenesulfonyl]-2H,4H,5H,6H-pyrrolo[3,4-c]pyrazol-5-yl}-2-(3-fluorophenyl)ethan-1-one] | 92 | 25 | – | –
N[C@@H](C(=O)N1Cc2cn(S(=O)(=O)c3ccc4ncsc4c3)nc2C1)c1cccc(F)c1 [Compound 32, (2R)-2-amino-1-[2-(1,3-benzothiazole-6-sulfonyl)-2H,4H,5H,6H-pyrrolo[3,4-c]pyrazol-5-yl]-2-(3-fluorophenyl)ethan-1-one] | 38 | 91 | – | –
O=C(N1Cc2cn(S(=O)(=O)c3ccc4ncsc4c3)nc2C1)C1(c2ccccc2)COC1 [Compound 40, 6-{[5-(3-phenyloxetane-3-carbonyl)-2H,4H,5H,6H-pyrrolo[3,4-c]pyrazol-2-yl]sulfonyl}-1,3-benzothiazole] | 60 | 31 | – | –
O=C([C@H](NCCO)c1ccccc1F)N1Cc2cn(S(=O)(=O)c3ccc4ncccc4c3)nc2C1 [Compound 106, (2R)-2-(2-fluorophenyl)-2-[(2-hydroxyethyl)amino]-1-[2-(quinoline-6-sulfonyl)-2H,4H,5H,6H-pyrrolo[3,4-c]pyrazol-5-yl]ethan-1-one] | 44 | – | – | –

The next lines start with results.

AC50 [1] [nM] | AC50 [2] [nM] | Structure (SMILES) | PKR % activation [1] [%] | PKM2 % activation [2] [%]
72 | 147 | NC(C(=O)N1Cc2cn(S(=O)(=O)c3ccc4ncsc4c3)nc2C1)c1cccc(C(F)(F)F)c1 (racemic) [Compound 26, 2-amino-1-[2-(1,3-benzothiazole-6-sulfonyl)-2H,4H,5H,6H-pyrrolo[3,4-c]pyrazol-5-yl]-2-[3-(trifluoromethyl)phenyl]ethan-1-one] | – | –
82 | 38 | CC(O)C(C(=O)N1Cc2cn(S(=O)(=O)c3ccc4ncsc4c3)nc2C1)c1ccccc1 (single isomer, unassigned) [Compound 5] | – | –
76 | 22 | O=C([C@@H](CO)c1ccccc1)N1Cc2cn(S(=O)(=O)c3ccc(OC(F)F)cc3)nc2C1 (single isomer, unassigned) [Compound 7, (2R)-1-{2-[4-(difluoromethoxy)benzenesulfonyl]-2H,4H,5H,6H-pyrrolo[3,4-c]pyrazol-5-yl}-3-hydroxy-2-phenylpropan-1-one, or (2S)-1-{2-[4-(difluoromethoxy)benzenesulfonyl]-2H,4H,5H,6H-pyrrolo[3,4-c]pyrazol-5-yl}-3-hydroxy-2-phenylpropan-1-one] | 137 | 116
62 | 93 | Cc1cccc([C@@]2(C(=O)N3Cc4cn(S(=O)(=O)c5ccc6ncsc6c5)nc4C3)CCOC2)n1 (single isomer, unassigned) [Compound 35, 6-({5-[(3S)-3-(6-methylpyridin-2-yl)oxolane-3-carbonyl]-2H,4H,5H,6H-pyrrolo[3,4-c]pyrazol-2-yl}sulfonyl)-1,3-benzothiazole or 6-({5-[(3R)-3-(6-methylpyridin-2-yl)oxolane-3-carbonyl]-2H,4H,5H,6H-pyrrolo[3,4-c]pyrazol-2-yl}sulfonyl)-1,3-benzothiazole] | 115 | 89
110 | 53 | N[C@H](C(=O)N1Cc2cn(S(=O)(=O)c3ccc4ncsc4c3)nc2C1)c1ccccc1 [Compound 14, (2S)-2-amino-1[2-(1,3-benzothiazole-6-sulfonyl)-2H,4H,5H,6H-pyrrolo[3,4-c]pyrazol-5-yl]-2-phenylethan-1-one] | – | –
24 | 23 | N[C@@H](C(=O)N1Cc2cn(S(=O)(=O)c3ccc4ncsc4c3)nc2C1)c1ccccc1F [Compound 17, (2R)-2-amino-1-[2-(1,3-benzothiazole-6-sulfonyl)-2H,4H,5H,6H-pyrrolo[3,4-c]pyrazol-5-yl]-2-(2-fluorophenyl)ethan-1-one] | – | –
21 | 17 | Cc1cccc([C@@H](N)C(=O)N2Cc3cn(S(=O)(=O)c4ccc5ncsc5c4)nc3C2)c1 [Compound 37, (2R)-2-amino-1-[2-(1,3-benzothiazole-6-sulfonyl)-2H,4H,5H,6H-pyrrolo[3,4-c]pyrazol-5-yl]-2-(3-methylphenyl)ethan-1-one] | – | –
17 | 16 | O=C([C@H](O)c1ccccc1)N1Cc2cn(S(=O)(=O)c3ccc4ncsc4c3)nc2C1 [Compound 42, (2R)-1-[2-(1,3-benzothiazole-6-sulfonyl)-2H,4H,5H,6H-pyrrolo[3,4-c]pyrazol-5-yl]-2-hydroxy-2-phenylethan-1-one] | – | –
